Reference: US20230248660A1 (Intelgenx Corp., priority 2016, published 2023)

Assays:
Porcine buccal mucosa = assay: Loxapine diffusion through Porcine buccal mucosa (Franz cell); settings: penetration enhancer in loxapine oral film, permeation through the mucosa
Description: FIG. 1 graphically depicts 1 oxapine film diffusion through Porcine buccal mucosa (48-hrs-old unfrozen fresh mucosa) (Franz cell 1.76 cm2; 37° C.); saliva pH 6.8.
FIG. 2 graphically depicts 1 oxapine film diffusion through Porcine buccal mucosa (26-hrs-old unfrozen fresh mucosa) (Franz cell 1.76 cm2; 37° C.); saliva pH 6.8.
FIG. 3 graphically depicts 1 oxapine Solutions-diffusion through Porcine buccal mucosa (fresh mucosa kept at 4C for 48 hours) (Franz cell 1.76 cm2; 37° C.); saliva pH 6.8.
These penetration enhancers include sulphoxides (dimethylsulphoxide, decylmethyl sulfoxide), azones (laurocapram), pyrrolidones (2pyrrolidone, 2P), alcohols/alkanols (ethanol or decanol), glycols (propylene glycol), surfactants (anionic, sodium lauryl sulfate, sodium decyl sulfate), (Nonionic, Tween, PLE), (Cationic, chitosan, cetylpyridinium chloride), terpenes (1,8-cineole, menthol, and menthone, D-limonene), fatty acids (oleic acid, sodium caprate), and bile salts (sodium deoxycholate, sodium deoxyglycocholate).

[1] = at or near neutral pH; cited from earlier work

Molecule | Effect on loxapine absorption/permeation (Porcine buccal mucosa) | other results
CCCCCCCCCCCCOS(=O)(=O)[O-].[Na+] [Sodium lauryl sulphate (SLS), Sodium lauryl sulphate] | – | Effect on loxapine absorption/permeation (Porcine buccal mucosa; listed as SLS, sulphate): reduce absorption/permeation; Effect on loxapine absorption/permeation (Porcine buccal mucosa; sulphate): negative effect(−)
Sodium deoxycholate | positif effect (+) | –
CN1CCN(C2=Nc3ccccc3Oc3ccc(Cl)cc32)CC1 [loxapine, 2-chloro-11-(4-methylpiperazin-1-yl) dibenzo[b,f] [1,4] loxazepine] | – | solubility of loxapine [1]: especially low
O=C(O)CN(CCN(CC(=O)O)CC(=O)O)CC(=O)O.[Ca].[Na].[Na] [Ethylenediaminetetraacetic acid calcium disodium] | no effect | –
CCCCCCCCCCCCCCCC[n+]1ccccc1 [Cetylpyridinium chloride] | no effect | –
C=C(C)[C@@H]1CC=C(C)CC1 [(S)-(−)-Limonene] | positif effect (+) | –
